Results from patent US9682980B2, “Positive allosteric modulators of mGluR2” (BRISTOL-MYERS SQUIBB COMPANY, priority 2012, dated 2017).

Target: human mGluR2 (Homo sapiens (Human), UniProt Q14416)
Assay: MGluR2 cAMP assay
Format: cell-based
Conditions: HEK293 cells clonally expressing human mGluR2, 1 μM forskolin, 1 μM LY-341495
Experimental: Clonally expressed human mGluR2 in HEK293 background was glutamate starved overnight in media without glutamine (GIBCO MEM 12360), containing 10% FBS, 1% penicillin streptomycin.
On the day of the assay, media was removed, cells washed with PBS, cells harvested and pelleted by centrifugation. Cell pellets were resuspended in stimulation buffer without forskolin and counted. A solution of 1.25×10^6 cells/ml was prepared and dispensed to plates using a Combi liquid handler (Thermo). A standard curve was created using a top concentration of cAMP of 1 μM in the stimulation buffer, 1:3 dilutions over 14 points in the absence of cells. Plates were read by time-resolved fluorescence at […] and a ratio was calculated via in house software, (665 nM/618 nM)*10^4. In house software converted the fluorescence value ratios to units of cAMP concentration, which is then used to calculate % inhibition for each test compound.
Compounds were added to white, standard volume 384 non-binding surface plates (Corning 3574). Cells were resuspended in stimulation buffer consisting of Hanks Balanced Salt Solution (14175-095) pH 7.0, 20 mM HEPES, 2.0 mM CaCl2, 5.0 mM MgCl2, and 1 mM IBMX (Sigma 15879), 1 μM forskolin, and 1 μM LY-341495, for 30 minutes. Buffer without forskolin was used as a negative control. Solutions of D2 and cryptate detection reagents from the CISBIO dynamic cAMP kit (62AM4PEJ) were diluted 1:40 in lysis buffer. Lysis buffer consisted of 50 mM Phosphate Buffer pH 7.0, 800 mM Potassium Fluoride, 0.2% BSA, and 1.0% Triton. Assay reaction was terminated by addition of detection reagents in lysis buffer. One hour later, plates were read on a PE Viewlux. Data was extracted, and concentration response curves generated by fitting the data to a standard 4 parameter logistic equation from which EC50 values were determined See table 1: A: <10 nM; B: 10-100 nM; C: 100-1000 nM; D: 1000-10000 nM.

human mGluR2, sequence (Q14416 19-872): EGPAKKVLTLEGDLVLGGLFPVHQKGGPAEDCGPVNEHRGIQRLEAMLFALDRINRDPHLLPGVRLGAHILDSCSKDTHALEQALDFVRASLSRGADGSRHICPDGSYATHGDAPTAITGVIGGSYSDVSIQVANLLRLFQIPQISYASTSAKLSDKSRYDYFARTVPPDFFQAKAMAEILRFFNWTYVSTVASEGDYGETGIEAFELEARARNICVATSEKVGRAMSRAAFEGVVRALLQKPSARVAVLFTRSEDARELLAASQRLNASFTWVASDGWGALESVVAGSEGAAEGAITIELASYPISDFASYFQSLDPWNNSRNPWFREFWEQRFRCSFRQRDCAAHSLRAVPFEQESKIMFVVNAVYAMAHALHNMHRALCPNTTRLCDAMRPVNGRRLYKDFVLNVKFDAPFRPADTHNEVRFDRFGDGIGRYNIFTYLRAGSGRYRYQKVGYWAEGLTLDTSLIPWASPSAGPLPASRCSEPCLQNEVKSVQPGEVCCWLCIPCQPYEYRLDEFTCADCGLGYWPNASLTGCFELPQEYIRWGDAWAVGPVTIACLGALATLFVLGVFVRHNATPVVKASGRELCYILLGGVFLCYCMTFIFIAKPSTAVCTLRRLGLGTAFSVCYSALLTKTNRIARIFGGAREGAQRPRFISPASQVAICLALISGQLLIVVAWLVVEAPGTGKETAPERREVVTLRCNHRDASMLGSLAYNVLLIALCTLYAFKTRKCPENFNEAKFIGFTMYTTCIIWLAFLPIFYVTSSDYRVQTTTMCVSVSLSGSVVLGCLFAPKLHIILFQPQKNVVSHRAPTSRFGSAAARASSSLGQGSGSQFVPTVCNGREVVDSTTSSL

| SMILES | EC50 |
| --- | --- |
| Clc1cccc(C2CCN(c3cnn4c(CC5CC5)nnc4c3Cl)CC2)c1Cl [Example 46, 8-Chloro-3-(cyclopropylmethyl)-7-(4-(2,3-dichlorophenyl)piperidin-1-yl)-[1,2,4]triazolo[4,3-b]pyridazine] | 154 nM |
| Clc1cc(Cl)cc(C2CCN(c3cnn4c(CC5CC5)nnc4c3Cl)CC2)c1 [Example 47, 8-Chloro-3-(cyclopropylmethyl)-7-(4-(3,5-dichlorophenyl)piperidin-1-yl)-[1,2,4]triazolo[4,3-b]pyridazine] | 144 nM |
| FC(F)(F)Cc1nnc2c(Cl)c(N3CCC(c4cc(Cl)cc(Cl)c4)CC3)cnn12 [Example 48, 8-Chloro-7-(4-(3,5-dichlorophenyl)piperidin-1-yl)-3-(2,2,2-trifluoroethyl)-[1,2,4]triazolo[4,3-b]pyridazine] | 263 nM |
| CCN(CC1CC1c1ccc(F)cc1)c1cnn2c(CC3CC3)nnc2c1Cl (centres unmarked) [Example 49, 8-Chloro-3-(cyclopropylmethyl)-N-ethyl-N-((2-(4-fluorophenyl)cyclopropyl)methyl)-[1,2,4]triazolo[4,3-b]pyridazin-7-amine] | 425 nM |
| Fc1ccc(F)c(C2CCN(c3cnn4c(CC5CC5)nnc4c3Cl)CC2)c1OC(F)F [Example 50, 8-Chloro-3-(cyclopropylmethyl)-7-(4-(2-(difluoromethoxy)-3,6-difluorophenyl)piperidin-1-yl)-[1,2,4]triazolo[4,3-b]pyridazine] | 2 nM |
| Fc1ccc(F)c(C2CCN(c3cnn4c(CC(F)(F)F)nnc4c3Cl)CC2)c1OC(F)F [Example 51, 8-Chloro-7-(4-(2-(difluoromethoxy)-3,6-difluorophenyl)piperidin-1-yl)-3-(2,2,2-trifluoroethyl)-[1,2,4]triazolo[4,3-b]pyridazine] | 3 nM |
| Fc1cc(OC(F)F)c(C2CCN(c3cnn4c(CC5CC5)nnc4c3Cl)CC2)cc1F [Example 52, 8-Chloro-3-(cyclopropylmethyl)-7-(4-(2-(difluoromethoxy)-4,5-difluorophenyl)piperidin-1-yl)-[1,2,4]triazolo[4,3-b]pyridazine] | 8 nM |
| Fc1cc(OC(F)F)c(C2CCN(c3cnn4c(CC(F)(F)F)nnc4c3Cl)CC2)cc1F [Example 53, 8-Chloro-7-(4-(2-(difluoromethoxy)-4,5-difluorophenyl)piperidin-1-yl)-3-(2,2,2-trifluoroethyl)-[1,2,4]triazolo[4,3-b]pyridazine] | 6 nM |
| Fc1cc(F)c(OC(F)F)c(C2CCN(c3cnn4c(CC5CC5)nnc4c3Cl)CC2)c1 [Example 54, 8-Chloro-3-(cyclopropylmethyl)-7-(4-(2-(difluoromethoxy)-3,5-difluorophenyl)piperidin-1-yl)-[1,2,4]triazolo[4,3-b]pyridazine] | 10 nM |
| Fc1cc(F)c(OC(F)F)c(C2CCN(c3cnn4c(CC(F)(F)F)nnc4c3Cl)CC2)c1 [Example 55, 8-Chloro-7-(4-(2-(difluoromethoxy)-3,5-difluorophenyl)piperidin-1-yl)-3-(2,2,2-trifluoroethyl)-[1,2,4]triazolo[4,3-b]pyridazine] | 21 nM |
| FC(F)(F)Cc1nnc2c(Cl)c(N3CCC(c4ccccc4)CC3)cnn12 [Example 56, 8-Chloro-7-(4-phenylpiperidin-1-yl)-3-(2,2,2-trifluoroethyl)-[1,2,4]triazolo[4,3-b]pyridazine] | 62 nM |
| Clc1c(N2CCC(c3ccccc3)CC2)cnn2c(Cc3ccccc3)nnc12 [Example 57, 3-Benzyl-8-chloro-7-(4-phenylpiperidin-1-yl)-[1,2,4]triazolo[4,3-b]pyridazine] | 217 nM |
| CC(C)Cc1nnc2c(Cl)c(N3CCC(c4ccccc4)CC3)cnn12 [Example 58, 8-Chloro-3-isobutyl-7-(4-phenylpiperidin-1-yl)-[1,2,4]triazolo[4,3-b]pyridazine] | 201 nM |
| Clc1c(N2CCC(c3ccccc3)CC2)cnn2c(CCC3CC3)nnc12 [Example 59, 8-Chloro-3-(2-cyclopropylethyl)-7-(4-phenylpiperidin-1-yl)-[1,2,4]triazolo[4,3-b]pyridazine] | 121 nM |
| FC(F)(F)Cc1nnc2c(Cl)c(N3CCC(c4cccc(Cl)c4Cl)CC3)cnn12 [Example 60, 8-Chloro-7-(4-(2,3-dichlorophenyl)piperidin-1-yl)-3-(2,2,2-trifluoroethyl)-[1,2,4]triazolo[4,3-b]pyridazine] | 94 nM |
| Clc1c(NC2CCC(c3ccccc3)CC2)cnn2c(CC3CC3)nnc12 (centres unmarked) [Example 61, 8-Chloro-3-(cyclopropylmethyl)-N-(4-phenylcyclohexyl)-[1,2,4]triazolo[4,3-b]pyridazin-7-amine] | 225 nM |
| O=C1Oc2ccccc2C12CCN(c1cnn3c(CC4CC4)nnc3c1Cl)CC2 [Example 62, 1′-(8-Chloro-3-(cyclopropylmethyl)-[1,2,4]triazolo[4,3-b]pyridazin-7-yl)-2H-spiro[benzofuran-3,4′-piperidin]-2-one] | 47 nM |
| O=C1Oc2ccccc2C12CCN(c1cnn3c(CC(F)(F)F)nnc3c1Cl)CC2 [Example 63, 1′-(8-Chloro-3-(2,2,2-trifluoroethyl)-[1,2,4]triazolo[4,3-b]pyridazin-7-yl)-2H-spiro[benzofuran-3,4′-piperidin]-2-one] | 185 nM |
| FC(F)(F)Cc1nnc2c(Cl)c(NC3CCC(c4ccccc4)CC3)cnn12 (centres unmarked) [Example 64, 8-Chloro-N-(4-phenylcyclohexyl)-3-(2,2,2-trifluoroethyl)-[1,2,4]triazolo[4,3-b]pyridazin-7-amine] | 733 nM |
| FC(F)(F)c1ccccc1C1CCN(c2cnn3c(CC4CC4)nnc3c2Cl)CC1 [Example 65, 8-Chloro-3-(cyclopropylmethyl)-7-(4-(2-(trifluoromethyl)phenyl)piperidin-1-yl)-[1,2,4]triazolo[4,3-b]pyridazine] | 36 nM |
| FC(F)(F)Cc1nnc2c(Cl)c(N3CCC(c4ccccc4C(F)(F)F)CC3)cnn12 [Example 66, 8-Chloro-3-(2,2,2-trifluoroethyl)-7-(4-(2-(trifluoromethyl)phenyl)piperidin-1-yl)-[1,2,4]triazolo[4,3-b]pyridazine] | 23 nM |
| Fc1ccccc1C1CCN(c2ncn3c(CC(F)(F)F)nnc3c2Cl)CC1 [Example 67, 8-Chloro-7-(4-(2-fluorophenyl)piperidin-1-yl)-3-(2,2,2-trifluoroethyl)-[1,2,4]triazolo[4,3-c]pyrimidine] | 5 nM |
| Fc1ccccc1C1CCN(c2ncn3c(CC4CC4)nnc3c2Cl)CC1 [Example 68, 8-Chloro-3-(cyclopropylmethyl)-7-(4-(2-fluorophenyl)piperidin-1-yl)-[1,2,4]triazolo[4,3-c]pyrimidine] | 4 nM |
| Fc1ccc(C2CCN(c3ncn4c(CC(F)(F)F)nnc4c3Cl)CC2)cc1 [Example 69, 8-Chloro-7-(4-(4-fluorophenyl)piperidin-1-yl)-3-(2,2,2-trifluoroethyl)-[1,2,4]triazolo[4,3-c]pyrimidine] | 438 nM |
| COc1cccc(F)c1C1CCN(c2cnn3c(CC4CC4)nnc3c2C(F)(F)F)CC1 [Example 70, 3-(Cyclopropylmethyl)-7-(4-(2-fluoro-6-methoxyphenyl)piperidin-1-yl)-8-(trifluoromethyl)-[1,2,4]triazolo[4,3-b]pyridazine] | 3 nM |
| COc1cccc(F)c1C1CCN(c2cnn3c(CC4CC4)nnc3c2C(F)(F)F)CC1 [Example 71, 3-(Cyclopropylmethyl)-7-(4-(2-fluoro-6-methoxyphenyl)piperidin-1-yl)-8-(trifluoromethyl)-[1,2,4]triazolo[4,3-b]pyridazine] | 4 nM |
